Consider 14 compounds from article PMC3463587, “A Series of Beta-Carboline Derivatives Inhibit the Kinase Activity of PLKs” (PLoS ONE, 2012).

Each structure is given as a SMILES string. Where only a bound is given, the exact number is not on record here.

Broadly, the IC50 is the concentration needed to halve the response being measured. High values mean lower potency, low ones higher potency.

The subject of one test is wild-type yeast cells. In words: Yeast growth inhibition (MIC), wild-type. Particulars: 10 µg/ml, 25°C.
For test [1], the system named is cdc5-2 mutant yeast cells. In words: Yeast growth inhibition (MIC), cdc5-2 mutant. As to conditions: 10 µg/ml, 25°C.
Method: (§2) The Cdc5 kinase is the functional homologue of PLK1 in budding yeast and the incubation of cdc5-2 mutants at 37°C impairs the kinase activity and stops cell growth. […] We also compared the sensitivity of wild-type and cdc5-2 mutant cells to the selected compounds at different concentrations. […] The temperature sensitive cdc5-2 mutants and wild-type strains were used. […] After incubation at 25°C for 24 hr, the growth of the yeast cells was determined by measuring OD600.
Another test has as its system HeLa cells. Kind of test: MTT cell proliferation assay, HeLa. The format is cell-based. Particulars: Homo sapiens, 48 hr. From the text: (§1) BI2536 was purchased from Selleck (Selleck, USA).
A general note: Tetrazolium dyes change colour on reduction, which living cells bring about.

Test [2] has as its system four cancer cell lines (HepG2, MG63, HeLa and PC3). In words: Growth inhibition of four cancer cell lines. The format is cell-based, Human. From the text:
In order to find more efficient antitumor small molecules targeting PLK1, we synthesized additional 18 beta-carboline compounds and the structures of these compounds are shown in Figure 1. The growth inhibition of four cancer cell lines (HepG2, MG63, HeLa and PC3) by these compounds was examined. […] We selected DH281, DH285 and DH287 for further studies.

The test system of a further test is HepG2 cells. In words: MTT cell proliferation assay, HepG2. The format is cell-based. Particulars: Homo sapiens, 48 hr.
From the text: as §1

The subject of another test is MG63 cells. In words: MTT cell proliferation assay, MG63. Particulars: Homo sapiens, MG-63, 48 hr. Format: cell-based.
From the text: as §1

Another test concerns PC3 cells. Kind of test: MTT cell proliferation assay, PC3. Format: cell-based. As to conditions: Homo sapiens, PC-3, 48 hr.
From the text: as §1

Method for wild-type yeast cells: as §2

With `CC[C@@H]1C(=O)N(C)c2cnc(Nc3ccc(C(=O)NC4CCN(C)CC4)cc3OC)nc2N1C1CCCC1` [BI2536, reference compound], the “growth of wild-type cells” value in the test on wild-type yeast cells is on record as “unaffected”. The “growth inhibition of cdc5-2 mutant cells” value in test [1] was “complete growth inhibition”.
In the case of `COc1ccc2c3ccnc(C)c3n(Cc3cccc(Cl)c3)c2c1` [DH145], the IC50 in the test with HeLa cells was found to be 40.5 ± 0.14 µM; with HepG2 cells, 68.45 ± 0.02 µM; in the test on MG63 cells it was 73.12 ± 0.31 µM; with PC3 cells, 75.39 ± 0.16 µM. In test [2], the “antitumor activity (growth inhibition)” value is “did not show obvious antitumor activity”.
Consider `Fc1ccc(Cn2c3ccccc3c3cc[n+](Cc4ccccc4)c(Cc4ccccc4)c32)cc1` [DH271], for which the IC50 turned out to be 3.86 ± 0.44 µM in the test with HeLa cells, 4.01 ± 0.1 µM in the test on HepG2 cells, 5.97 ± 0.06 µM in the test with MG63 cells and 8.38 ± 0.24 µM in the test on PC3 cells.
In the same order, the values of `c1ccc(CCCn2c3ccccc3c3cc[n+](Cc4ccccc4)cc32)cc1` [DH272] are 8.16 ± 0.37 µM, 12.47 ± 0.12 µM, 12.8 ± 0.28 µM and 22.1 ± 0.43 µM.
As to `Clc1cccc(C[n+]2ccc3c4ccccc4n(CCCc4ccccc4)c3c2)c1` [DH273], the IC50 was determined as 3.77 ± 0.25 µM in the test on HeLa cells, 5.08 ± 0.38 µM in the test on HepG2 cells, 4.21 ± 0.45 µM in the test with MG63 cells and 3.86 ± 0.12 µM in the test on PC3 cells.
Turning to `Fc1ccc(C[n+]2ccc3c4ccccc4n(CCCc4ccccc4)c3c2)cc1` [DH274], the IC50 in the test on HeLa cells was 5.73 ± 0.18 µM; in the test on HepG2 cells it was 7.37 ± 0.26 µM; in the test with MG63 cells, 6.38 ± 0.19 µM; in the test on PC3 cells, 6.07 ± 0.27 µM.
Consider `Fc1ccc(C[n+]2ccc3c4ccccc4n(Cc4cccc(Cl)c4)c3c2)cc1` [DH275], for which the IC50 with HeLa cells stood at 5.83 ± 0.03 µM; in the test with HepG2 cells it was 10.4 ± 0.37 µM; with MG63 cells, 7.32 ± 0.22 µM; in the test on PC3 cells it was 6.36 ± 0.11 µM.
The corresponding values for `Clc1cccc(Cn2c3ccccc3c3cc[n+](Cc4cccc(Cl)c4)cc32)c1` [DH276] are 6.04 ± 0.17 µM, 11.2 ± 0.22 µM, 7.3 ± 0.06 µM and 6.65 ± 0.4 µM.
In the same order, the values of `Clc1cccc(Cn2c3ccccc3c3cc[n+](Cc4ccccc4)cc32)c1` [DH277] are 8.48 ± 0.23 µM, 18.8 ± 0.29 µM, 20.4 ± 0.16 µM and 10.8 ± 0.21 µM.
For the compound `Cc1nccc2c3ccc(OCc4cccc(Cl)c4)cc3n(CCCc3ccccc3)c12` [DH278], the IC50 in the test on HeLa cells is 63.14 ± 0.47 µM; in the test on HepG2 cells, more than 100 µM; in the test with MG63 cells, more than 150 µM; in the test on PC3 cells, 80.21 ± 0.31 µM. For the same compound, the “antitumor activity (growth inhibition)” value in test [2] was “did not show obvious antitumor activity”.
For the compound `Cc1nccc2c3ccc(OCc4ccc(F)cc4)cc3n(CCCc3ccccc3)c12` [DH279], the 50% inhibitory concentration (IC50) in the test on HeLa cells, with HepG2 cells, in the test on MG63 cells and in the test with PC3 cells was more than 100 µM each time. Also, the “antitumor activity (growth inhibition)” value in test [2] is “did not show obvious antitumor activity”.
Turning to `Cc1c2c(cc[n+]1Cc1ccccc1)c1ccc(OCc3cccc(Cl)c3)cc1n2CCCc1ccccc1` [DH280], the 50% inhibitory concentration (IC50) in the test on HeLa cells stood at 0.99 ± 0.14 µM; in the test on HepG2 cells, 2.59 ± 0.16 µM; in the test with MG63 cells, 1.86 ± 0.33 µM; in the test on PC3 cells it was 2.34 ± 0.06 µM. In test [2], the “antitumor activity (growth inhibition)” value is “very strong growth inhibition”.
`CCCCn1c2ccccc2c2cc(C(=O)NCCO)nc(C)c21` [DH286]: the IC50 in the test with HeLa cells is 65.81 ± 0.23 µM; in the test on HepG2 cells, more than 150 µM; in the test with MG63 cells, 46.09 ± 0.37 µM; with PC3 cells it was 72.96 ± 0.53 µM. The “antitumor activity (growth inhibition)” value in test [2] is “did not show obvious antitumor activity”.
The corresponding values for `Cc1nccc2c3ccc(OCc4ccccc4)cc3n(Cc3ccccc3)c12` [DH288] are more than 100 µM, more than 100 µM, more than 100 µM, more than 100 µM and “did not show obvious antitumor activity”.
